Experimental data as given in patent US5773263A, “Production aflastatin A from streptomyces sp., a pharmaceutical composition and methods of use” (Morinaga & Co., Ltd., priority 1996, dated 1998).
In brackets after ≈: the same amount, converted by molar mass. Several values for one entry are separate records, joined by “and”; a condition that tells them apart may be missing. Equal values may be shown once.

Key:
adenocarcinoma 755 = assay: Antitumor activity, subcutaneously transplanted adenocarcinoma 755 in BDFI mice; format: in vivo, mouse; conditions: for Antitumor activity / Weight of tumor: four successive days, day 14; for Antitumor activity: control 100.0; for Weight of tumor: mean ± SD of six mice, control 1617.8 ± 179.07
Protocol: BDFI mice having a weight of from 21.0 to 24.3 g were divided into four groups each being 6 mice. A physiological saline suspension of adenocarcinoma 755 cells collected from subcultured 11th day mouse and adjusted, was transplanted subcutaneously at a right ventral portion of each mouse at a rate of 5×10^5 cells/0.5 ml/mouse.
The day of transplantation was regarded as the day 0. From the next day, intraperitoneal administration was carried out once a day for four successive days to each group at a rate of aflastatin A administration of 0.3 mg/kg/day, 1 mg/kg/day, or 3 mg/kg/day. The aflastatin A was suspended in a 0.25% carboxymethyl cellulose solution (manufactured by Nakarai Tesk) and administered at a dose of 10 ml/kg. The rest of the four groups was used as a control.
By the day 14, general conditions were observed every day, and the mice were clubbed to death at the day 14. Solid tumors were collected and their wet weights were measured. From the measured tumor weights, inhibitory ratios against the control group were calculated and antitumor activities were determined. The tumor weight is represented by an average of six mice±standard deviation.

ddy series male mice = assay: Toxicity, single administration to mice; format: in vivo
Protocol: Aflastatin A was suspended in a 0.25% carboxymethylcellulose solution and the suspension was administered to ddy series male mice. […] By single oral administration, no mice died in an administered amount of 1,000 mg/kg or less.

[1] = system: Fusarium graminearum ATCC 34909; format: cell-based
[2] = system: Pyricularia oryzae IFO 30732; format: cell-based
[3] = system: Trichophyton mentagrophytes IFO 5809; assay: Antimicrobial spectrum, agar dilution MIC; format: cell-based; conditions: medium C, 30 °C, 48 hrs
Solubility = format: physicochemical
[4] = system: Psuedomonas aeruginosa IAM 1514; assay: Antimicrobial spectrum, agar dilution MIC; format: cell-based; conditions: medium A, 37 °C, 24 hrs
Protocol: (§1) Conditions for the measurements of the antimicrobial sepctra are as follows:
(§2) 80 mg of aflastatin A was dissolved in 4 ml of dimethyl sulfoxide (DMSO). This solution was diluted with DMSO to prepare a dilution series by two times as test solutions. The test solutions were filtrated with a filter and sterilized. 50 μl of each of them was added to 10 ml of a sterilized agar medium at 60° C. to prepare a dilution series of agar media. To each of the agar media, test strains were inoculated for antimicrobial activity. Media used for the tests are as follows:
(§3) A: Nutrient agar (manufactured by Nihon Suisan K.K.)

[5] = system: Escherichia coli IFO 14249; assay: Antimicrobial spectrum, agar dilution MIC; format: cell-based; conditions: medium A, 37 °C, 24 hrs
Protocol: as §1, §2, §3

[6] = system: Staphylococcus aureus IFO 13276; assay: Antimicrobial spectrum, agar dilution MIC; format: cell-based; conditions: medium A, 37 °C, 24 hrs
Protocol: as §1, §2, §3

[7] = system: Bacillus subtilis IAM 1145; assay: Antimicrobial spectrum, agar dilution MIC; format: cell-based; conditions: medium A, 37 °C, 24 hrs
Protocol: as §1, §2, §3

[8] = system: Aspergillus parasiticus NRRL 2999; set-up: key: -: no growth; +: growth delayed; ++: fine growth; conditions: in vivo
[9] = system: Aspergillus parasiticus NRRL 2999; format: cell-based
[10] = system: Aspergillus parasiticus NRRL 2999; assay: Antimicrobial spectrum, agar dilution MIC; format: cell-based; conditions: medium B, 27 °C, 48 hrs
Protocol: as §1, §2
B: Potato dextrose agar (manufactured by Nihon Suisan K.K.)

[11] = system: Candida albicans IFO 1594; assay: Antimicrobial spectrum, agar dilution MIC; format: cell-based; conditions: medium C, 30 °C, 48 hrs
Protocol: as §1, §2
(§4) C: Sabouraud agar (manufactured by Nihon Suisan K.K.)

[12] = system: Saccharomyces cerevisiae IFO 0250; assay: Antimicrobial spectrum, agar dilution MIC; format: cell-based; conditions: medium C, 30 °C, 48 hrs
Protocol: as §1, §2, §4

CCCCCCCCCC(O)C[C@]1(O)O[C@H](CC(O)C(O)C(O)C(O)C(O)CC(O)CC(O)CC(O)C(C)C(O)C(C)C(O)CC(O)C(C)C(O)C(C)C(O)C(C)C(O)C(O)CC(C)CC(C)/C=C(C)/C(O)=C2/C(=O)C(C)N(C)C2=O)[C@@H](O)[C@H](O)[C@@H]1O (stereo partly drawn) [aflastatin A]
Antitumor activity (adenocarcinoma 755; 0.3 mg/kg/day i.p.): 42.0%
Weight of tumor (adenocarcinoma 755; 0.3 mg/kg/day i.p.): 680.2 ± 176.63 mg
Antitumor activity (adenocarcinoma 755; 1 mg/kg/day i.p.): 24.3%
Weight of tumor (adenocarcinoma 755; 1 mg/kg/day i.p.): 392.8 ± 87.07 mg
Dose assessment (adenocarcinoma 755; 3 mg/kg/day i.p.): overdose
Mortality (printed in the column weight of tumor) (adenocarcinoma 755; 3 mg/kg/day i.p.): All mice died by the day 3
LD50 (ddy series male mice; single intraperitoneal administration, suspended in 0.25% carboxymethylcellulose): 6.17 mg/kg
Mortality (ddy series male mice; single oral administration, 1,000 mg/kg or less): no mice died
MIC [1]: > 100 µg/mL
MIC [2]: > 0.19 µg/mL
MIC [3]: 0.39 µg/mL (≈ 0.31 µM)
Solubility (Solubility; aqueous butanol): slightly soluble
Solubility (Solubility; aqueous ethanol): slightly soluble
Solubility (Solubility; dimethyl sulfoxide): Soluble
Solubility (Solubility; glycerol): slightly soluble
Solubility (Solubility; methanol): slightly soluble
Solubility (Solubility; other organic solvents): practically insoluble
Solubility (Solubility; water): practically insoluble
MIC [4]: > 100 µg/mL
MIC [5]: > 100 µg/mL
MIC [6]: 0.78 µg/mL (≈ 0.62 µM)
MIC [7]: 0.39 µg/mL (≈ 0.31 µM)
Growth of strains [8]: ++
Colony diameter [9]: 7.8 ± 0.2 cm and 6.5 ± 0.2 cm and 5.5 ± 0.3 cm
MIC [10]: > 100 µg/mL
MIC [11]: 0.39 µg/mL (≈ 0.31 µM)
MIC [12]: < 0.19 µg/mL
